Source: PMC11481179, “Development and Application of Reversible and Irreversible Covalent Probes for Human and Mouse Cathepsin‐K Activity Detection, Revealing Nuclear Activity” (Advanced Science, 2024)

Columns and labels:
CTSS = CTSS (Homo sapiens, UniProt P25774); assay: In vitro kinetic evaluation of cathepsin inhibition, fluorescent substrate Z-FR-AMC; format: biochemical
Procedure: (§1) used for TLC. Phosphate Buffer Saline (PBS) was purchased from Biological Industries (pH = […]
(§2) 7.4) and was used as a buffer system in all experiments if not indicated otherwise. […]
(§3) Recombinant human CTSB, CTSK, CTSL, and CTSS were supplied by B. Turk (J.
(§4) Stefan Institute).[1] […]
(§5) In vitro kinetic evaluation of labeling recombinant cathepsins:
(§6) Reactions were monitored for 30 min at 37° C in 96-well black flat-bottom microplates […]
(Greiner, Germany) using Tecan INFINITE M1000 pro plate reader (Tecan, Switzerland), […]
(§7) substrates Z-RR-AMC (CTSL) or Z-FR-AMC (CTSS, CTSB and CTSK), and excitation and […]
emission wavelengths of 370 and 460 nm, respectively. Cathepsin concentrations in the assay were 0.4 nM (CTSK) or 5 nM (CTSS, CTSB, and CTSL). The buffer was 100 mM Na2HPO4/NaH2PO4, 50 mM NaCl, 5 mM DTT, 0,1% Peg-6000, pH 6. For irreversible inhibitors, reaction data were fitted to the one-phase association formula in GraphPad Prism 9 software: Y=Y0 + (Plateau-Y0)*(1-exp(-K*X)) where in this case Y0 and Y represent fluorescence signal at times 0 and t, respectively, K represent the observed reaction rate kobs and X the inhibitor concentration. Inactivation rates at each inhibitor concentration were obtained by subtracting the inactivation observed in the control sample: kobs – kctrl. The maximal rate of inactivation (kinact) was obtained as the asymptote from equation Y = kinact*X/(Kiapp + X) where X is inhibitor concentration, Y is the observed inactivation rate for each X, and Kiapp is the apparent inhibition constant. Ki values were calculated from IC50 or from Kiapp using formulas Ki = Kiapp / (1 + Km/S) and IC50 = E0/2 + Kiapp, where Km stands for Michalis-Menten constant, S for substrate concentration and E0 for cathepsin concentration.
(§8) The highest inhibitor concentrations in the assay were 50 µM. Measurements were performed in several independent duplicates. Average values are presented with standard deviations. […]

CTSK = target: T1, CTSK (Homo sapiens, UniProt P43235); assay: as above; format: biochemical
T1 sequence (P43235 115-329): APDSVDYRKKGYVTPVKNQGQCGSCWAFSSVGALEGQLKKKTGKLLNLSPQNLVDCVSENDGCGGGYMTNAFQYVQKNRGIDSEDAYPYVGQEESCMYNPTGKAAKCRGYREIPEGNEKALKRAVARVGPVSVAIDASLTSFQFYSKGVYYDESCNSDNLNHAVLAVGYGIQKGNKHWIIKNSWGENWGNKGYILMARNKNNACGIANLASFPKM
From the text: as §1, §2, §3, §4
Fluorescent gels were scanned by a Typhoon FLA 9500 flatbed laser scanner (GE Healthcare […]
Bio-Sciences AB, Uppsala, Sweden). BioRad ChemiDox XRS+ was used for western blot […]
analysis. Olympus FV10i inverted microscope (Tokyo,Japan) with Fluoview software or Zeiss […]
Confocal LSM 980 with Airyscan (Germany) with Zen software were used for confocal […]
as §5, §6
(Greiner, Germany) using Tecan […] M1000 pro plate reader (Tecan, Switzerland), […]
as §7
emission wavelengths of 370 and 460 nm, respectively. Cathepsin concentrations in the assay were 0.4 nM (CTSK) or 5 nM (CTSS, CTSB, and CTSL). The buffer was 100 mM Na2HPO4/NaH2PO4, 50 mM NaCl, 5 mM DTT, 0,1% Peg-6000, pH 6. For irreversible inhibitors, reaction data were fitted to the one-phase association formula in GraphPad Prism 9 software: Y=Y0 + (Plateau-Y0)*(1-exp(-K*X)) where in this case Y0 and Y represent fluorescence signal at times 0 and t, respectively, K represent the observed reaction rate kobs and X the inhibitor concentration. Inactivation rates at each inhibitor concentration were […]
maximal rate of inactivation (kinact) was obtained as the asymptote from equation […]
for each X, and Kiapp is the apparent inhibition constant. Ki values were calculated from IC50 or from Kiapp using formulas Ki = Kiapp / (1 + Km/S) and IC50 = E0/2 + Kiapp, where Km stands for Michalis-Menten constant, S for substrate concentration and E0 for cathepsin concentration.
as §8

[1] = target: T2, endogenous CTSK in intact U-2 OS cells (Homo sapiens, UniProt P43235); assay: Labeling of endogenous CTSK in intact cells, fluorescent SDS-PAGE; format: cell-based; conditions: inhibitor 5 µM, 2 h, then GD32 5 µM
T2 construct: ability to label endogenous CTSK activity in intact cells; endogenous in cells; host or cells: U-2 OS
T2 sequence (P43235 115-329): T1 sequence (P43235 115-329)
Procedure: To test probe selectivity and the ability to label endogenous CTSK activity in intact cells, three cell lines were selected: human osteosarcoma MG‐63 and U‐2 OS, and human glioblastoma U‐87 MG; all cell lines express CTSK along with other lysosomal cathepsins.^[ [44] ^] First, the ABPs were incubated with intact U‐2 OS cells for different durations of time, and the probe selectivity toward CTSK was examined, with a pan cathepsin ABP, GB123, used as a control that labels CTS B, K, L, and S in cells. After cell lysis, the probe‐labeled enzymes were resolved and detected by a fluorescent scan of the SDS‐PAGE. […] Specifically, intact MG‐63 cells required a 5 h incubation (Figure 2b,c), while U‐87 MG cells required a 2 h incubation (Figure 2d).
Figure 2 Labeling of endogenous CTSK in intact cells. a) U2‐OS cells were treated with DMSO or 5 µM of the indicated inhibitors in culture medium, for 2 h, then with indicated ABPs [5 µM] in a culture medium for indicated times, followed by cell lysis, SDS‐PAGE separation, and fluorescent scanning of the gel at 635/670 nm. An immunoblot of CTSK of the same gel is presented below. b) Intact MG63 cells were treated with GD32 5 µM in the culture media for indicated times, cell lysates were analyzed as in a. CTSK immunoblot is presented, pro and mature CTSK are indicated by arrows. c) MG63 cells and d) U87MG cells were treated with DMSO, or 5 µM of indicated inhibitors in culture medium for 2 h, followed by incubation with 5 µM of indicated probes for 5 h (GD32 and GD42) and 2 h (GB123), cell lysates were analyzed by fluorescent SDS PAGE as in a. […] In (c) a CTSK immunoblot of a representative MG63 lane on the right. e) Labeling of active mature CTSK by GD32 in A549 and U2‐0S cells in externally adjusted different pH. Cells were incubated with 5 µM GD32 for 24 h in growth media at indicated pHs, prior to the cell lysis, cell lysates were analysed as in a. CTSK immunoblot below. f) A549 cells were incubated with increasing concentrations of GD30 for 2 h at pH = 5, followed by the incubation with 5 µM GD32 for 24 h prior to the cell lysis, cell lysates were analyzed as in a. g) Intact U‐87 MG cells or U‐87 MG cell lysates were treated with 5 µM GD32 for 2 h, the intact cells were then lysed and all lysates were analyzed as in (a). h) Intact or lysates of U‐87MG were treated with GD32 for 2 h then immunoprecipitation was done with an anti‐CTSK antibody. Input (I), immunoprecipitation (IP), and output (O) were separated by a 14% SDS‐PAGE and scanned for fluorescence. The gel was then blotted and reacted with an anti‐cystatin B antibody below. ODN (Odanacatib), GB111 (GB111‐NH2), mCTSK (mature CTSK). […]
deoxycholate). After adding sample buffer, samples were boiled for 10 minutes, and analyzed […]
lysates were analyzed as described above. […]

U-87 MG cells = assay: Cell viability assay (methylene blue); format: cell-based, human; conditions: 48 h incubation
Procedure: U-2 OS, U-87 MG, and enriched monocyte cells were grown at 370 C with 5% of CO2 in the
respective medium as described previously. Cells were seeded (1500 cells/well in 96 wells
plate) one day before the incubation with indicated probe or inhibitor at various concentrations.
After 48 h cells were fixed, and viability was measured by quantitative colorimetric assay using
methylene blue according to the procedure reported by Ben-Bassat et al. The data were
expressed as a percentage of control; data represent the mean of 2 experiments with triplicates
for each treatment (± standard deviation).
Fluorescent imaging of CTSK activity in lung tissue: Freshly resected human lung cancer and
normal lung tissues or mouse normal lung and primary lung cancer were embedded in OCT,
frozen in liquid nitrogen, and kept at - 80° C. Tissues were sectioned into 10 μm thick slices
using a cryostat (Leica). The slides were defrosted and washed with 1X PBS. Then the slides
were pretreated with DMSO or GD30 (5 µM) in buffer acetate for 1 h at 37° C. Afterward,
GD32 (0.75uM) or DMSO in buffer acetate were applied to the slides for 4 h at 37° C. Three
short washes with 1X PBS were done and the slides were left in 1X PBS for overnight
incubation at 4° C. The next day, slides were mounted with DAPI-Fluoromount-G® before
visualization by confocal microscopy. Olympus FV10i was used for human samples, whereas
Zeiss was used for mouse samples.
Details of the synthesis of the compounds
Synthesis of Compound (2)

Sequence of CTSS (P25774 115-331): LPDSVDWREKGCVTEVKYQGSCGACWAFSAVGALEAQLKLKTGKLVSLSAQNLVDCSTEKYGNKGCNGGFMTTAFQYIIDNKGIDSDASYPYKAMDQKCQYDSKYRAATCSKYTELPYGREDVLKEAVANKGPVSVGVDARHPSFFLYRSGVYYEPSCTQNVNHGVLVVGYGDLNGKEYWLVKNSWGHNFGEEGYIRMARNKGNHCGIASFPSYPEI

| SMILES | mode of inhibition (CTSS; CTSS) | IC50 (CTSS; CTSS 5 nM) | mode of inhibition (CTSK; CTSK) | IC50 (CTSK; CTSK 0.4 nM, tight binding) | effect of inhibitor preincubation on GD32-labeled CTSK band [1] | cytotoxicity (U-87 MG cells) |
| --- | --- | --- | --- | --- | --- | --- |
| CC(C)(F)C[C@H](N[C@@H](c1ccc(-c2ccc(S(C)(=O)=O)cc2)cc1)C(F)(F)F)C(=O)NC1(C#N)CC1 [ODN, odanacatib, reference compound] | Reversible | 140 nM | Reversible [Tight binding] | 0.94 nM | depletion of the CTSK‐specific band |  |
| Cc1cccc(C)c1C(=O)OCC(=O)[C@H](CCCCN)NC(=O)[C@H](Cc1ccccc1)NC(=O)OCc1ccccc1 [GB111‐NH2, reference compound] |  |  |  |  | depletion of the CTSK‐specific band | exhibited cytotoxicity |
